Entries after “also recorded” stand apart in the source; their conditions may differ.
What was measured:
EAE mice = test: EAE clinical disease score; format: in vivo, mouse; design: key to Disability: Disease score: ‘+’ indicate marker was significantly (p ≤ 0.05) increased in treatment group relative to vehicle; ‘−’ indicates marker was significantly (p ≤ 0.05) decreased in treatment group relative to vehicle; ○: ‘o’ indicate marker did not change relative to vehicle; settings: for Disability: Disease score / EAE clinical scores / disease progression: vs vehicle; for EAE clinical symptoms during peak disease: therapeutic 5 mg/kg/d from day 8 (postEAE); for EAE clinical scores / disease progression: therapeutic s.c. from day 8 (postEAE)
[1] = system: corpus callosum mature OLs (CC1) and MBP; test: CC1 mature OLs and MBP immunoreactivity in callosal white matter tracts of EAE mice; format: in vivo, mouse; design: key to Myelination: OLs / Myelination: MBP: ‘+’ indicate marker was significantly (p ≤ 0.05) increased in treatment group relative to vehicle; ‘−’ indicates marker was significantly (p ≤ 0.05) decreased in treatment group relative to vehicle; ○: ‘o’ indicate marker did not change relative to vehicle; settings: vs vehicle; for CC1+ mature OL numbers, corpus callosum / MBP+ staining, corpus callosum: therapeutic treatment (postEAE)
Excerpt: (§1) Immunohistochemistry: Before histological staining, 40-μm free floating sections were thoroughly washed with PBS to remove residual sodium azide (Crawford et al., 2010). Sections were permeabilized with 0.3% Triton X-100 in ix PBS and 15% normal goat serum (NGS). Myelination, gliosis and immune markers were visualized by the following primary antibodies at a concentration of 1:500 unless otherwise noted: chicken anti-myelin basic protein (MBP; polyclonal, EMD Millipore, Darmstadt, Germany), chicken anti-glial fibrillary acidic protein (GFAP; EMD Millipore, Darmstadt), rat anti-cluster of differentiation 45 (CD45; clone 30-F11, BD Biosciences, San Diego, Calif.), mouse anti-ionized calcium-binding adapter molecule 1/allograft inflammatory factor-1 (Iba1/AIF1; clone 20A12.1, EMD Millipore, Darmstadt, Germany), goat anti-CXCL1 (R&D systems; Minneapolis, Minn.) at 1:250 and mouse anti-adenomatous polyposis coli (CC-1; clone CC-1, Genetex, Irvine, Calif.). Secondary staining was performed using polyclonal fluorophore-conjugated antibodies from ThermoFisher Scientific at a concentration of 1:500 unless otherwise specified: goat anti-chicken Alexa Fluor® 555 (AF555), goat anti-rabbit Alexa Fluor® 647 (AF647), donkey anti-chicken IgY Cy3 (EMD Millipore), goat anti-rat IgG AF647, goat anti-rabbit IgG Cy3 (EMD Millipore), goat anti-mouse IgG2b AF647 and rabbit anti-goat AF647. Nuclei were counter stained with 4′,6-Diamidino-2-phenylindole (DAPI, 2 ng/ml; Molecular Probes) for 10 minutes after incubation with secondary antibodies, and sections were mounted on glass slides, allowed to dry, and coverslipped with Fluoromount G mounting medium (Thermo Fisher Scientific) for imaging.
(§2) Confocal Microscopy: Thoracic spinal cord dorsal and ventral column sections, as well as CC were imaged using an Olympus BX61 confocal microscope (Olympus America Inc., Center Valley, Pa.) using a 10× and 40× objective. Z-stack projections were compiled using SlideBook 6 software (Intelligent Imaging Innovations, Inc., Denver, Colo.). Immunostaining was quantified using unbiased stereology (Crawford et al., 2010). All images (RGB) were Confocal converted to grayscale, split, and separated by color channel using imageJ version 2.2.0-rc-46/1.50 g (NIH). To avoid experimenter bias, auto-adjustment of brightness and contrast, as well as threshold of staining signal, was carried out by ImageJ. MBP^+, GFAP^+, CD45^+, Iba1^+, CC1^+, and CXCL1^+, staining intensity was measured as percent area of positive immunoreactivity within the region of interest and intensity of signal determined by ImageJ.
To test whether IndCl analogues promote similar gains in mature OL numbers and myelination, callosal white matter tracts were assessed for adenomatous polyposis coli (CC1) and MBP immunoreactivity, respectively. Additionally, ultrastructural analysis of the CC was performed by EM imaging to confirm the integrity of axon myelination.

[2] = system: CD45+ leukocyte, Iba1+ macrophage/microglia, GFAP+ astrocytes; test: CD45, Iba1 and GFAP staining in thoracic spinal cord dorsal column of EAE mice; format: in vivo, mouse; design: key to CNS Cellular Inflammation: CD45 / CNS Cellular Inflammation: Iba1 / CNS Cellular Inflammation: GFAP: ‘+’ indicate marker was significantly (p ≤ 0.05) increased in treatment group relative to vehicle; ‘−’ indicates marker was significantly (p ≤ 0.05) decreased in treatment group relative to vehicle; ○: ‘o’ indicate marker did not change relative to vehicle; settings: vs vehicle; for CD45 fluorescence intensity, spinal cord dorsal column / GFAP fluorescence intensity, spinal cord dorsal column: therapeutic treatment (postEAE)
Excerpt: as §1, §2
To assess whether IndCl analogues exert similar anti-inflammatory effects, CD45+ leukocyte, ionized calcium-binding adapter molecule 1 (Iba1)+ macrophage/microglia, and GFAP+ astrocytes were assessed in thoracic spinal cord dorsal column sections from normal and EAE mice.

ERβ = ERβ (Homo sapiens, UniProt Q92731); test: Relative binding affinity (RBA) to estrogen receptor beta, radiometric measurement; settings: for β/α Ratio: ratio of RBA ERβ to RBA ERα; for RBA ERβ: relative value to 100% for E2 by radiometric measurement
corpus callosum axons = test: Electron microscopy g-ratio of corpus callosum axons of EAE mice; format: in vivo, mouse; design: key to Myelination: g-ratio: ‘+’ indicate marker was significantly (p ≤ 0.05) increased in treatment group relative to vehicle; ‘−’ indicates marker was significantly (p ≤ 0.05) decreased in treatment group relative to vehicle; ○: ‘o’ indicate marker did not change relative to vehicle; settings: vs vehicle; for Myelination: g-ratio: Post (therapeutic, postEAE) treatment of EAE mice
Procedure: Transmission Electron Microscopy: Mice were perfused with PBS as above followed by paraformaldehyde/glutaraldehyde to preserve ultrastructure and Epon embedded as previously described (Crawford et al., 2010). Serial ultrathin sections of Epon-embedded CC were stained with uranyl acetate-lead citrate were used for electron microscopy analysis (19). G-ratio was measured using Fiji v1.0 Software (NIH).
EM analysis (FIGS. 8A and 8B): Within a given field imaged, g-ratios were calculated by comparing mean ratio of inner axonal diameter to total outer diameter for all myelinated and non-myelinated fibers. […] Treatment with IndCl or either analogue decreased both non-myelinated axons numbers and g-ratio relative to vehicle.

[3] = Post (therapeutic, postEAE) treatment of EAE mice
[4] = Pre (prophylactic, preEAE) E2 treatment of EAE mice

Sequence of ERβ (Q92731 whole entry, species assumed): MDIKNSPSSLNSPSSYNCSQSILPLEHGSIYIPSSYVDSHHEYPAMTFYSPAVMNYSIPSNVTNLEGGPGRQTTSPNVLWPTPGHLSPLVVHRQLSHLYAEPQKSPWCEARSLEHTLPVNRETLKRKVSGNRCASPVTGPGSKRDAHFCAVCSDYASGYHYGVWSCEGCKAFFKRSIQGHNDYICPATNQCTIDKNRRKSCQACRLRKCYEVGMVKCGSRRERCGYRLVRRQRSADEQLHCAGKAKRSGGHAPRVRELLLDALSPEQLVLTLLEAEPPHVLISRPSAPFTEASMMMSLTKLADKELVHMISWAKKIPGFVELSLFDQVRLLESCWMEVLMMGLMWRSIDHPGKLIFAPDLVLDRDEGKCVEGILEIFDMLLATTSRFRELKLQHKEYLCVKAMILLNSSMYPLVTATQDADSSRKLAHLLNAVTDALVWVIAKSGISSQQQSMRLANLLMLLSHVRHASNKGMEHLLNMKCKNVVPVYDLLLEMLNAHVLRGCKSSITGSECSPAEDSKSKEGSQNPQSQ

`C[C@]12CC[C@@H]3c4ccc(O)cc4CC[C@H]3[C@@H]1CC[C@@H]2O` [E2, 170 estradiol] was tested, and the “Disability: Disease score” value (EAE mice; [3]) was “○”, the “Disability: Disease score” value (EAE mice; [4]) was “−” and the “Myelination: MBP” value [1, 3] was “○”. The “Myelination: OLs” value [1, 3] was “+”, the “Myelination: MBP” value [1, 4] was “+” and the “Myelination: OLs” value [1, 4] was “+”. The “CNS Cellular Inflammation: CD45” value [2, 3] was “−”, the “CNS Cellular Inflammation: GFAP” value [2, 3] was “○” and the “CNS Cellular Inflammation: Iba1” value [2, 3] was “○”. The “CNS Cellular Inflammation: CD45” value [2, 4] was “−”, the “CNS Cellular Inflammation: GFAP” value [2, 4] was “−” and the “CNS Cellular Inflammation: Iba1” value [2, 4] was “−”.

For `Oc1ccc(-n2nc3ccc(O)cc3c2Cl)cc1` [IndCl, chloroindazole], the “β/α Ratio” value (ERβ) was 107, the “RBA ERβ” value (ERβ) was 32.1% and the “Myelination: g-ratio” value (corpus callosum axons) was “−”. The “g-ratio of callosal axons” value (corpus callosum axons; therapeutic treatment (postEAE)) was “decreased”, the “Disability: Disease score” value (EAE mice; [3]) was “○” and the “EAE clinical symptoms during peak disease” value (EAE mice) was “did not significantly affect EAE clinical symptoms”. The “EAE clinical scores / disease progression” value (EAE mice) was “reversed disease progression over time”, the “Myelination: MBP” value [1, 3] was “+” and the “Myelination: OLs” value [1, 3] was “+”. For the same molecule, the “CC1+ mature OL numbers, corpus callosum” value [1] was “significant increase; also recorded: rescued the loss of CC1+ cells”, the “MBP+ staining, corpus callosum” value [1] was “increased MBP+ staining” and the “CNS Cellular Inflammation: CD45” value [2, 3] was “−”. For the same molecule, the “CNS Cellular Inflammation: GFAP” value [2, 3] was “○”, the “CNS Cellular Inflammation: Iba1” value [2, 3] was “−” and the “CD45 fluorescence intensity, spinal cord dorsal column” value (from here on “CD45 fluorescence intensity”) [2] was “similar”.

`Cc1cc(O)ccc1-n1nc2ccc(O)cc2c1Cl` [IndCl-o-Me, 3-chloro-2-(4-hydroxy-2-methylphenyl)-2H-indazol-5-ol] was tested, and the “β/α Ratio” value (ERβ) was 48.9, the “RBA ERβ” value (ERβ) was 21.1% and the “Myelination: g-ratio” value (corpus callosum axons) was “−”. For the same molecule, the “Disability: Disease score” value (EAE mice; [3]) was “−”, the “EAE clinical symptoms during peak disease” value (EAE mice) was “did not significantly affect EAE clinical symptoms” and the “EAE clinical scores / disease progression” value (EAE mice) was “reversed disease progression over time; also recorded: significantly reduced”. The “Myelination: MBP” value [1, 3] was “+”, the “Myelination: OLs” value [1, 3] was “+” and the “CC1+ mature OL numbers, corpus callosum” value [1] was “significant increase”. The “MBP+ staining, corpus callosum” value [1] was “increased MBP+ staining”, the “CNS Cellular Inflammation: CD45” value [2, 3] was “−” and the “CNS Cellular Inflammation: GFAP” value [2, 3] was “○”. The “CNS Cellular Inflammation: Iba1” value [2, 3] was “○”, the “CD45 fluorescence intensity” value [2] was “similar” and the “GFAP fluorescence intensity, spinal cord dorsal column” value [2] was “similar”.

With `Oc1ccc(-n2nc3ccc(O)cc3c2Cl)c(Cl)c1` [IndCl-o-Cl, 3-chloro-2-(2-chloro-4-hydroxyphenyl)-2H-indazol-5-ol] the “β/α Ratio” value (ERβ) was 27.1, the “RBA ERβ” value (ERβ) was 10.9% and the “Myelination: g-ratio” value (corpus callosum axons) was “−”. The “Disability: Disease score” value (EAE mice; [3]) was “−”, the “EAE clinical symptoms during peak disease” value (EAE mice) was “did not significantly affect EAE clinical symptoms” and the “EAE clinical scores / disease progression” value (EAE mice) was “reversed disease progression over time; also recorded: significantly reduced”. For the same molecule, the “Myelination: MBP” value [1, 3] was “+”, the “Myelination: OLs” value [1, 3] was “+” and the “CC1+ mature OL numbers, corpus callosum” value [1] was “significant increase”. The “MBP+ staining, corpus callosum” value [1] was “increased MBP+ staining”, the “CNS Cellular Inflammation: CD45” value [2, 3] was “−” and the “CNS Cellular Inflammation: GFAP” value [2, 3] was “○”. For the same molecule, the “CNS Cellular Inflammation: Iba1” value [2, 3] was “○”, the “CD45 fluorescence intensity” value [2] was “similar” and the “GFAP fluorescence intensity, spinal cord dorsal column” value [2] was “similar”.
